In US20260217687A1 (NeoPhore Limited, priority 2023, published 2026):

Assays:
Assay type in all cases: binding
[1] = biological target: T1, recombinant N-terminal MLH1 (residues 15-340) (Homo sapiens, UniProt P40692); assay: Fluorescence Polarisation Assay for MLH1; settings: 100 nM N-terminal MLH1, 5 nM probe compound
T1 construct: recombinant N-terminal MLH1 (residues 15-340)
T1 sequence (P40692 15-340): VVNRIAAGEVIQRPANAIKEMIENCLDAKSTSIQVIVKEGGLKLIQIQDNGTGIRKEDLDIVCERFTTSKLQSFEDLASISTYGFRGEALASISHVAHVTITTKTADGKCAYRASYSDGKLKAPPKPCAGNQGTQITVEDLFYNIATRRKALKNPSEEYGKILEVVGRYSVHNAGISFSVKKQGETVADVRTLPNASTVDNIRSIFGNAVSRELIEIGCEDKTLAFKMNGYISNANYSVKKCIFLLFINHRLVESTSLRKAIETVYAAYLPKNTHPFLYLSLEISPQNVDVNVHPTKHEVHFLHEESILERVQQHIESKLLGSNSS
Method in brief: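 Fluorescence polarisation displacement: 100 nM MLH1 (15-340) preincubated 30 min at room temperature with compound, then 5 nM rhodamine-labelled probe added and read immediately. Buffer 25 mM HEPES pH 7.5, 250 mM NaCl, 10 mM MgCl2, 0.01% Triton X-100, 5 mM DTT; normalised to no-inhibitor and no-enzyme controls.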

[2] = biological target: T2, recombinant N-terminal PMS2 (residues 1-365) (Homo sapiens, UniProt P54278); assay: Fluorescence Polarisation Assay for PMS2; settings: 10 nM N-terminal PMS2, 5 nM probe compound
T2 construct: recombinant N-terminal PMS2 (residues 1-365)
T2 sequence (P54278 1-365): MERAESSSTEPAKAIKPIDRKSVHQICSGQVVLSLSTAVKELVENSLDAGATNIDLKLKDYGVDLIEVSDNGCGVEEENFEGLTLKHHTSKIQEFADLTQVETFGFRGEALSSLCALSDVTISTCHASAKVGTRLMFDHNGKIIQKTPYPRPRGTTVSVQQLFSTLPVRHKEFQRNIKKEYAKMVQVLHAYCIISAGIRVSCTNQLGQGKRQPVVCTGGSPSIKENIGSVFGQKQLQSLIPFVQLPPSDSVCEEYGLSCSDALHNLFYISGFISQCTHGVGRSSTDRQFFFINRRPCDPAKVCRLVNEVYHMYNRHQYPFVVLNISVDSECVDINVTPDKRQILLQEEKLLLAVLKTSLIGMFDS
Description: Fluorescence Polarisation Assay for PMS2
Test compounds, as 10 mM DMSO stocks, were dispensed into a Black Fluotrac 200 384 well medium binding plate (Greiner Bio-One, item number 781076) using a Labcyte Echo acoustic liquid handler. For single point screening, test compounds were added to wells in columns 1-22 whilst DMSO was added to wells in columns 23 and 24 to normalise the plate. For potency determination, serial dilutions of test compounds were added to wells in columns 3-22 and DMSO volume was normalised across the plate. […] 20 μL assay buffer was added to all wells in columns 1 and 24 (column 24 only for single point screening) using a MultiDrop Combi (ThermoFisher). Plates were centrifuged for 1 minute at 250 xg and were incubated at room temperature for 30 minutes prior to the addition of 20 μL of 2×(20 nM) of 5-((5-(4-((2-(2,4-dihydroxy-5-isopropylbenzoyl) isoindolin-5-yl) methyl)piperazin-1-yl) pentyl)carbamoyl)-2-(6-(dimethylamino)-3-(dimethyliminio)-3H-xanthen-9-yl)benzoate (referred to hereinafter as “probe compound”) in assay buffer (prepared from a 100 μM DMSO stock) with a MultiDrop Combi (ThermoFisher). The final concentration of N-terminal PMS2 was 10 nM and the final concentration of probe compound was 5 nM. Compound plates were centrifuged for 1 minute at 250 xg for 1 minute and were incubated at room temperature for 1 hour before being read on a PheraStar FSX (fitted with 384-well aperture spoon and 540 590 590 FP optic module). The gain and focus were adjusted before each plate was read so that the polarisation of a no enzyme control (column 24) was equal to 35 mP. Data were normalised against the no inhibitor controls (column 23) and no enzyme controls (column 24).

[3] = biological target: T3, recombinant HSP90α (full length with an N-terminal His6-tag) (Homo sapiens, UniProt P07900); assay: Fluorescence Polarisation Assay for HSP90; settings: 30 nM HSP90α, 5 nM FITC-Geldanymycin
T3 construct: recombinant HSP90α (full length with an N-terminal His6-tag, BPS Bioscience); His6 (N); purchased BPS Bioscience
Description: Fluorescence Polarisation Assay for HSP90
Test compounds, solubilised to a concentration of 10 mM in DMSO, were dispensed into a Black Fluotrac 200 384 well medium binding plates (Greiner Bio-One, item number 781076) using a Labcyte Echo acoustic liquid handler. For single point screening, test compounds were added to wells in columns 1-22 whilst for potency determination, serial dilutions of test compounds were added to wells in columns 3-22; in all cases, DMSO volume was normalised across the entire plate. All subsequent liquid handling steps were conducted using a Multidrop Combi (Thermo Scientific) or Matrix electronic pipettors (Thermo Scientific).
20 μL assay buffer was added to all wells in columns 1 and 24 (column 24 only for single point screening). Plates were centrifuged for 1 minute at 250 xg and were incubated at room temperature for 30 minutes prior to the addition of 20 μL of 2×(10 nM) of FITC-Geldanymycin in assay buffer (Abcam ab141589, prepared from a 100 μM DMSO stock). […]
Compound plates were centrifuged for 1 minute at 250 xg and were incubated at room temperature for 3 hours before being read on a PheraStar FSX (fitted with 384-well aperture spoon and 485 520 520 FP optic module). The gain and focus were adjusted before each plate was read so that the polarisation of a no enzyme control (column 24) was equal to 35 mP. […]

SMILES | IC50 [1] | IC50 [2] | IC50 [3]
CN1CCC(Oc2ccc3c(c2)CN(C(=O)c2c(O)cc(F)cc2OCc2ccccc2)C3)CC1 [Example 10.25, (2-(Benzyloxy)-4-fluoro-6-hydroxyphenyl) (5-((1-methylpiperidin-4-yl)oxy)isoindolin-2-yl) methadone] | 100 to 1000 nM | 1000 to 10000 nM | 
CN1CCC(Oc2ccc3c(c2)CN(C(=O)c2c(O)cc(C(F)F)cc2OCc2ccccc2)C3)CC1 [Example 4.32, (2-(Benzyloxy)-4-(difluoromethyl)-6-hydroxyphenyl)(5-((1-methylpiperidin-4-yl)oxy)isoindolin-2-yl)methanone] | < 100 nM | 1000 to 10000 nM | 1000 to 10000 nM
CN1CC[C@H](Oc2ccc3c(c2)CN(C(=O)c2c(O)cc(C(F)F)cc2OCc2ccccc2)C3)C1 [Example 4.56, (S)-(2-(Benzyloxy)-4-(difluoromethyl)-6-hydroxyphenyl)(5-((1-methylpyrrolidin-3-yl)oxy)isoindolin-2-yl)methanone] | < 100 nM | 1000 to 10000 nM | 
CN(C)CCOc1ccc2c(c1)CCN(C(=O)c1c(O)cc(C(F)F)cc1OCc1ccccc1)C2 [Example 4.41, (2-(Benzyloxy)-4-s(difluoromethyl)-6-hydroxyphenyl)(6-(2-(dimethylamino)ethoxy)-3,4-dihydroisoquinolin-2(1H)-yl)methanone] | 100 to 1000 nM | 100 to 1000 nM | 
O=C(c1c(O)cc(C(F)F)cc1OCc1ccccc1)N1Cc2ccc(OC3CCNCC3)cc2C1 [Example 26, (2-(Benzyloxy)-4-(difluoromethyl)-6-hydroxyphenyl)(5-(piperidin-4-yloxy)isoindolin-2-yl)methanone] | < 100 nM | 1000 to 10000 nM | 
CN1CCC(Oc2ccc3c(c2)CN(C(=O)c2c(O)cc(C(F)F)cc2OCC2CC2)C3)CC1 [Example 4.59, (2-(Cyclopropylmethoxy)-4-(difluoromethyl)-6-hydroxyphenyl)(5-((1-methylpiperidin-4-yl)oxy)isoindolin-2-yl)methanone] | 100 to 1000 nM |  | 1000 to 10000 nM
O=C(c1c(O)cc(C(F)F)cc1OCc1ccccc1)N1CCc2ccncc21 [Example 27.23, (2-(Benzyloxy)-4-(difluoromethyl)-6-hydroxyphenyl)(2,3-dihydro-1H-pyrrolo[2,3-c]pyridin-1-yl)methanone] | 1000 to 10000 nM |  | 
CN1CCN(Cc2ccc3c(c2)CN(C(=O)c2c(O)cc(C(F)F)cc2OCc2ccccc2)C3)CC1 [Example 4.30, (2-(Benzyloxy)-4-(difluoromethyl)-6-hydroxyphenyl) (5-((4-methylpiperazin-1-yl)methyl)isoindolin-2-yl) methanone] | 100 to 1000 nM |  | 
CN(C)CCOc1ccc2c(c1)CCN(C(=O)c1c(O)cc(C#N)cc1OCc1ccccc1)C2 [Example 10.29, 3-(Benzyloxy)-4-(6-(2-(dimethylamino)ethoxy)-1,2,3,4-tetrahydroisoquinoline-2-carbonyl)-5-hydroxybenzonitrile] | 1000 to 10000 nM |  | 
COc1cc2c(c(N[C@@H]3CCOC3)c1)CN(C(=O)c1c(O)cc(C#N)cc1OCc1ccccc1)C2 [Example 10.13, (R)-3-(Benzyloxy)-5-hydroxy-4-(6-methoxy-4-((tetrahydrofuran-3-yl)amino)isoindoline-2-carbonyl)benzonitrile] | 100 to 1000 nM |  | 
N#Cc1cc(O)c(C(=O)N2Cc3cccc(N[C@H]4CCOC4)c3C2)c(OCc2ccccc2)c1 [Example 12, (S)-3-(Benzyloxy)-5-hydroxy-4-(4-((tetrahydrofuran-3-yl)amino)isoindoline-2-carbonyl)benzonitrile] | 100 to 1000 nM |  | 
N#Cc1cc(O)c(C(=O)N2Cc3cnc(N4CCOCC4)cc3C2)c(OCc2ccccc2)c1 [Example 27.8, 3-(Benzyloxy)-5-hydroxy-4-(6-morpholino-2,3-dihydro-1H-pyrrolo[3,4-c]pyridine-2-carbonyl)benzonitrile] | 1000 to 10000 nM |  | 
COCCOc1ccc2c(c1)CN(C(=O)c1c(O)cc(C(F)F)cc1OCc1ccccc1)C2 [Example 4.77, (2-(Benzyloxy)-4-(difluoromethyl)-6-hydroxyphenyl)(5-(2-methoxyethoxy)isoindolin-2-yl)methanone] | 100 to 1000 nM |  | 
N#Cc1cc(O)c(C(=O)N2CCc3cccc(N[C@H]4CCOC4)c3C2)c(OCc2ccccc2)c1 [Example 17, (S)-3-(Benzyloxy)-5-hydroxy-4-(8-((tetrahydrofuran-3-yl)amino)-1,2,3,4-tetrahydroisoquinoline-2-carbonyl)benzonitrile] | 100 to 1000 nM |  | 
N#Cc1cc(O)c(C(=O)N2Cc3cccc(Nc4cncnc4)c3C2)c(OCc2ccccc2)c1 [Example 10.4, 3-(Benzyloxy)-5-hydroxy-4-(4-(pyrimidin-5-ylamino)isoindoline-2-carbonyl)benzonitrile] | 1000 to 10000 nM |  | 
CN1CCN(Cc2ccc3c(c2)CN(C(=O)c2c(O)cc(C(F)F)cc2OCc2ccccc2)CC3)CC1 [Example 4.46, (2-(Benzyloxy)-4-(difluoromethyl)-6-hydroxyphenyl)(7-((4-methylpiperazin-1-yl)methyl)-3,4-dihydroisoquinolin-2(1H)-yl)methanone] | 100 to 1000 nM |  | 
CN1CC(Oc2ccc3c(c2)CN(C(=O)c2c(O)cc(C#N)cc2OCc2ccccc2)C3)C1 [Example 10.32, 3-(Benzyloxy)-5-hydroxy-4-(5-((1-methylazetidin-3-yl)oxy)isoindoline-2-carbonyl)benzonitrile] | 100 to 1000 nM |  | 
O=C(c1c(O)cc(C(F)F)cc1OCc1ccccc1)N1CCc2cnccc21 [Example 27.21, (2-(Benzyloxy)-4-(difluoromethyl)-6-hydroxyphenyl)(2,3-dihydro-1H-pyrrolo[3,2-c]pyridin-1-yl)methanone] | 1000 to 10000 nM |  | 
